From ChEMBL document CHEMBL2401673, “Design, synthesis, functional and structural characterization of an inhibitor of N-acetylneuraminate-9-phosphate phosphatase: observation of extensive dynamics in an enzyme/inhibitor complex” (Bioorg Med Chem Lett, 2013) come the findings set out here.

The target in data set [1] is T1, N-acylneuraminate-9-phosphatase (Homo sapiens, UniProt Q8TBE9).
T1 sequence (Q8TBE9 whole entry): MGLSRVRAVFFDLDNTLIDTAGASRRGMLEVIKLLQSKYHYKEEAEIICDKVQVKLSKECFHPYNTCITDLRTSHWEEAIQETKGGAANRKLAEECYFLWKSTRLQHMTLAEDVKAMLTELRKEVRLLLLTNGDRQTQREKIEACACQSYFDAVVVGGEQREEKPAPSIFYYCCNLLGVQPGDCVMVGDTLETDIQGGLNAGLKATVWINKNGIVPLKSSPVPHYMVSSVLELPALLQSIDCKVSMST
The experiment in a line: Reversible inhibition of recombinant HDHD4 (unknown origin) using Neu5Ac-9-P as substrate assessed as release of phosphate after 30 mins by maiachite green assay.

Data set [2] is described as follows: Dissociation constant, pKa of the compound by potentiometric titration method. Type of data set: physicochemical.
Data set [3] concerns the target T1, N-acylneuraminate-9-phosphatase. The experiment in a line: Inhibition of recombinant HDHD4 (unknown origin) using Neu5Ac-9-P as substrate assessed as release of phosphate after 30 mins by maiachite green assay.

Broadly, the IC50 is the concentration at which inhibition is half-maximal. Broadly, the pKa is the pH at which an ionisable group is half protonated. High values mean a group that holds its proton tightly, low ones a group that gives up its proton readily. On to `CC(=O)N[C@H]1[C@H]([C@H](O)[C@H](O)CCP(=O)(O)O)O[C@](O)(C(=O)O)C[C@@H]1O`, for which the IC50 in data set [1] was found to be 11 µM. Moreover, in data set [2], the pKa is 3.5.
As for `COC(=O)[C@]1(OC)C[C@H](O)[C@@H](NC(C)=O)[C@H]([C@H](O)[C@H](O)CCP(=O)(O)O)O1`, in data set [3], the IC50 was found to be 93.7 µM.
In data set [2], `CC(=O)N[C@H]1[C@H]([C@H](O)[C@H](O)CO)O[C@](O)(C(=O)O)C[C@@H]1O` gave a pKa of 3.2.
For `CC(=O)N[C@H]1[C@H]([C@H](O)[C@H](O)CCC(=O)O)O[C@](O)(C(=O)O)C[C@@H]1O`, in data set [3], the IC50 is greater than 100 µM.
As to `CO[C@@]1(C(=O)O)C[C@H](O)[C@@H](NC(C)=O)[C@H]([C@H](O)[C@H](O)CCP(=O)(O)O)O1`, the IC50 in data set [3] was 49.8 µM.
Take `CC(=O)N[C@H]1[C@H]([C@H](O)[C@H](O)COP(=O)(O)O)O[C@](O)(C(=O)O)C[C@@H]1O`: the pKa in data set [2] was 3.6.
